Laboratory results: US8007782B2, “Combination bacteriolytic therapy for the treatment of tumors” (priority 2003, dated 2011)

Key:
Weight loss after COBALT = assay type: in vivo, nude mice; conditions: drug dose 1.7 mg/kg; maximum average weight loss relative to weight one day prior to treatment; HCT116 xenografts
[1] = test system: HCT116, HuCC-T1, HT-29, SW480, B16 and DLD-1 tumors; test: Low dose HTI-286 and L-NNA on various xenografts (FIG. 10); assay type: in vivo, mice; conditions: HTI-286 1 mg/kg without L-NNA; L-NNA 10 mg/kg without HTI-286
Excerpt: FIG. 10A-10F Quantification of the effects of C. novyi-NT plus low doses of HTI-286 and L-NNA on various xenografts (HCT116, HuCC-T1, HT-29, SW480, B16, and DLD-1, respectively).
[…] […] The p-values are based on comparisons between L-NNA+HTI-286 and L-NNA+HTI-286+C. novyi-NT spores. The p-value is indicated only when the result was statistically significant.
All animal protocols were designed in accordance with the Guide for the Care and Use of Laboratory Animals (NIH Publication 86-23) and were approved by the Johns Hopkins University Institutional Animal Care and Use Committee. Six to eight week old mice were implanted subcutaneously on one flank with 3 to 6 million cancer cells. Establishment of tumors of 150 to 500 mm3 took 8 to 21 days, depending on the cell type. C. novyi-NT spores (300×106) and anti-microtubule agents were generally administered by a single intravenous injection through the tail vein in a total volume of 300 to 500 ul phosphate-buffered saline (PBS). Quantitative assessment of tumor growth was performed by measuring subcutaneous tumor grafts (major and minor axis) using electronic calipers. Tumor volume was calculated using the equation: length×width2×0.5. Progression free survival was defined as the length of time following treatment before any increase in tumor volume was observed. Mice were considered “cured” if no tumor was evident three months after treatment. […]

[2] = test system: tumor blood flow in HCT116 xenografts; test: Assessment of blood perfusion (Hoechst 33342) in HCT116 xenografts; assay type: in vivo, mice; conditions: HTI-286 1.7 mg/kg or docetaxel 50 mg/kg iv, 3 and 24 hr after treatment
Experimental: Three or 24 hours after treatment, mice were intravenously injected with Hoechst 33342 (40 mg/kg) and euthanized two minutes later. Tumors were cryosectioned and viewed by fluorescence microscopy after counter-staining with acridine orange (AO). Endothelial cells are stained blue when they have taken up the Hoechst 33342 dye. Adjacent sections were stained with MECA-32 monoclonal antibody, a vascular endothelium-specific marker. Arrows point towards normal blood vessels unaffected by HTI-286 treatment in overlying skin.
Mice bearing HCT116 xenografts of 300 to 500 mm3 were injected intravenously with anti-microtubule agents. At various times thereafter, they were intravenously injected with Hoechst 33342 (40 mg/kg), then euthanized two minutes later by CO2 narcosis. Tumors were fixed in Tissue-Tek OTC compound (Sakura Finetek, Torrance, Calif.) and stored at −80° C. Frozen sections 10 microns in thickness were prepared with a Leica Microsystems cryostat and counterstained with acridine orange, 7.5 ug/ml, in PBS for 5 minutes. […] At least three sections of each of three tumors, representing middle and distal parts of the tumor, were examined under fluorescence microscopy for each agent tested, and representative results are illustrated in the figures. […]

[3] = test system: HCT116 human colorectal cancer cells; test: Tumorigenicity assay, HCT116 xenografts in nude mice; assay type: in vivo; conditions: for Effect with C. novyi-NT / Effect alone: nude mice; for Effect alone: agent alone
[4] = test system: Glucose Transporter-1 (Glut-1); test: Immunohistochemistry for Glut-1 (hypoxia marker) in HCT116 xenografts; assay type: in vivo, mice; conditions: HTI-286 1.7 mg/kg or docetaxel 50 mg/kg iv, 6 hr after treatment
Experimental: Mice were euthanized six hours after treatment. Tumors were sectioned and H & E stained. Adjacent sections were stained for Glut-1 expression, a marker for hypoxia. Cells positive for Glut-1 appear brown. Arrows indicate examples of hemorrhage.
Paraffin sections were deparaffinized, incubated with proteinase K (Invitrogen), heated at 95° C. for 20 min in citrate buffer (pH 6), and treated with peroxidase blocking reagent (Dako). Sections were incubated with a monoclonal antibody against Glucose Transporter-1 (Glut-1, Dako) followed by a biotin-conjugated secondary antibody (Pierce). A third layer consisting of HRP-conjugated anti-biotin (DAKO) was followed by diaminobenzidine (Sigma) staining. Sections were counterstained with eosin.
Two independent tests of this hypothesis were performed. First, we directly assessed hypoxia within tumors by staining with an antibody to Glucose Transporter-1 (Glut-1). Glut-1 has been extensively studied and shown to be specifically expressed only in hypoxic regions (Airley et al., 2001).

CN[C@H](C(=O)N[C@H](C(=O)N(C)[C@H](/C=C(\C)C(=O)O)C(C)C)C(C)(C)C)C(C)(C)c1ccccc1 [HTI-286, N,β,β-trimethyl-L-phenylalanyl-N^1-[(1S,2E)-3-carboxy-1-isopropylbut-2-enyl]-N^1,3-dimethyl-L-valinamide]
Weight Loss (%) (Weight loss after COBALT): 11.4% | effects on tumor growth when administered without the other agent [1]: no significant effects on tumor growth | blood flow to the tumors (Hoechst 33342 labelling) [2]: almost completely inhibited | Effect with C. novyi-NT ([3]; 0.5 mg/kg × 1 (iv) with 3×108 C. novyi-NT spores iv): + | Effect with C. novyi-NT ([3]; 1.0 mg/kg × 1 (iv) with 3×108 C. novyi-NT spores iv): + | Effect with C. novyi-NT ([3]; 1.5 mg/kg × 1 (iv) with 3×108 C. novyi-NT spores iv): ++ (10% to 50% shrinkage in tumor volume relative to pre-treatment size) | Effect with C. novyi-NT ([3]; 1.7 mg/kg × 1 (iv) with 3×108 C. novyi-NT spores iv): ++++ (>20% cures) | Effect with C. novyi-NT ([3]; 1.9 mg/kg × 1 (iv) with 3×108 C. novyi-NT spores iv): ++++ (>20% cures) | Effect with C. novyi-NT ([3]; 2 (2.0) mg/kg × 1 (iv) with 3×108 C. novyi-NT spores iv): ++++ (>20% cures) | Effect alone ([3]; 0.5 mg/kg × 1 (iv)): 0 | Effect alone ([3]; 1.0 mg/kg × 1 (iv)): 0 | Effect alone ([3]; 1.5 mg/kg × 1 (iv)): + | Effect alone ([3]; 1.7 mg/kg × 1 (iv)): + | Effect alone ([3]; 1.9 mg/kg × 1 (iv)): ++ (10% to 50% shrinkage in tumor volume relative to pre-treatment size) | Effect alone ([3]; 2 (2.0) mg/kg × 1 (iv)): ++ (10% to 50% shrinkage in tumor volume relative to pre-treatment size) | hemorrhagic necrosis ([3]; single treatment): modest amount of hemorrhagic necrosis | Glut-1 expression (hypoxia marker) in tumors [4]: large amounts of Glut-1
